Literature values, collected in patent US11504321B2, “Process of coloring keratinous material comprising the use of an organosilicon compound, an effect pigment, a further coloring compound and a film-forming polymer II” (Henkel AG & Co. KGaA, priority 2019, dated 2022).

Conditions: for solubility in water: 25° C.

Row | solubility in water (in words) (at 25° C.) | SMILES | solubility in water
1 |  | CCN(Cc1cccc(S(=O)(=O)[O-])c1)c1ccc(C(=C2C=CC(=[N+](CC)Cc3cccc(S(=O)(=O)[O-])c3)C=C2)c2ccccc2S(=O)(=O)[O-])cc1.[Na+].[Na+] [Acid Blue 9] | more than 20 % by weight
2 |  | O=S(=O)([O-])c1ccc(N=Nc2c(O)ccc3ccccc23)cc1.[Na+] [Acid Orange 7, sodium salt of 4-[(2-hydroxy-1-naphthyl)azo]benzene sulphonate] | more than 7 g/L
3 |  | Nc1cc(S(=O)(=O)[O-])cc2cc(S(=O)(=O)[O-])c(N=Nc3ccccc3)c(O)c12.[Na+].[Na+] [Acid Red 33, disodium salt of 5-amino-4-hydroxy-3-(phenylazo)-naphthalene-2,7-disulphonate] | 2500 µg/mL
4 |  | O=C([O-])c1c(Cl)c(Cl)c(Cl)c(Cl)c1-c1c2c(Br)cc(=O)c(Br)c-2oc2c(Br)c(O)cc(Br)c12.O=C([O-])c1c(Cl)c(Cl)c(Cl)c(Cl)c1-c1c2c(Br)cc(=O)c(Br)c-2oc2c(Br)c(O)cc(Br)c12.[Na+].[Na+] [Acid Red 92, disodium salt of 3,4,5,6-tetrachloro-2-(1,4,5,8-tetrabromo-6-hydroxy-3-oxoxanthen-9-yl)benzoic acid] | greater than 10 g/L
5 | highly soluble in water | O=C([O-])C1=NN(c2ccc(S(=O)(=O)[O-])cc2)C(=O)C1N=Nc1ccc(S(=O)(=O)[O-])cc1.[Na+].[Na+].[Na+] (centres unmarked) [Acid Yellow 23, trisodium salt of 4,5-dihydro-5-oxo-1-(4-sulfophenyl)-4-((4-sulfophenyl)azo)-1H-pyrazole-3-carboxylic acid] | 
